Earlier results in US8431577B2, “Crystalline form of eszopiclone, composition, preparation and uses thereof” (Tianjin Tasly Group Co., Ltd., priority 2008, dated 2013).

Conditions: comparative acute toxicity research; cited from earlier work

Structure (SMILES): CN1CCN(C(=O)O[C@H]2c3nccnc3C(=O)N2c2ccc(Cl)cn2)CC1 [S-zopiclone, (+)-(S)-(4-methylpiperazine-1-carboxylate)(6-(5-chloropyridinyl-2-yl)-7-carbonyl-6,7-dihydro-5-H-pyrrolo[3,4-b]pyrazin-5-yl ester)]
- acute toxicity compared with racemic zopiclone: low toxicity than that of the racemic zopiclone
